Molecules are shown by their SMILES. Where “and” joins values, the source holds several entries; their conditions need not be identical. Identical values can stand only once.

This test relates to NCI-H196 complex spheroids with HUVEC/MSC, growth % T/C. Nature of the test: Anticancer human tumor NCI-H196 cell line growth inhibition [Asc].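 For all read-outs here: spheroids exposed to compound for 7 days before measurement.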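 For viability, T/C: 100% = DMSO vehicle control wells.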 Particulars: for viability, T/C: stronger effect = lower value. On the procedure:
Multicellular complex tumor spheroid response to apoptosis pathway targeting inhibitors Alrizomadlin, Pelcitoclax, and Dasminapant in combination with a variety of drugs and investigational agents in selected tumor cell lines
The MDM2 inhibitor alrizomadlin, the Bcl-2/Bcl-xL inhibitor pelcitoclax, and the IAPs inhibitor dasminapant were evaluated both individually and in combination with standard of care and investigational anticancer small molecules within a complex spheroid model of solid tumors. . Complex spheroids include a stromal component modeled by human endothelial cells (HUVEC) and fibroblasts modeled by human mesenchymal stem cells (MSCs). The concentration ranges selected for each drug and investigational agent were based upon clinically achievable concentrations if the clinical Cmax of the agent was known.
Compounds. The drugs and investigational agents: alrizomadlin (APG-115; NSC831270), pelcitoclax (APG-1252; NSC835773), dasminapant (APG-1387;NSC834197), TAK-243 (NSC785004), copanlisib (NSC809693), olaparib (NSC753686), talazoparib (NSC767125), cobimetinib (NSC 768068), eltanexor (KPT-8602, NSC 794443), abemaciclib (NSC 768073), sotorasib (NSC818433), adagrasib (NSC 831453), MRTX-1133 (NSC 836407), Iadademestat (ORY1001, NSC 806812), and RMC-4630 (NSC839698), were obtained from the NCI Developmental Therapeutics Program Chemical Repository. The FDA-approved anticancer drug set is available from the Developmental Therapeutics Program at https://dtp.cancer.gov/organization/dscb/obtaining/available plates.htm. […] The stock solutions were prepared in dimethyl sulfoxide (DMSO, Sigma-Aldrich, St. Louis, MO, cat. D2650) at 800-fold the tested concentration and stored at -70 degrees C prior to their use. All drugs and investigational agents were tested over a range starting from a high concentration at or near the clinical Cmax and decreasing in half-log increments. If the clinical Cmax for an agent had not been determined, the highest concentration tested was 10 microM.
The patient-derived cancer (PDC) cell lines include five colon adenocarcinomas: 186277-243-T-J2-PDC, 616215-338-R-J1-PDC, 439559-082-T-J2-PDC, 463943-066-T-J2-PDC, and 519858-162-T-J1-PDC; three pancreatic carcinomas: 323965-272-R-J2-PDC, 521955-158-R6-J3-PDC, and 521955-158-R2-J5-PDC; two uterine sarcomas: 327498-152-R-J2-PDC and 993429-296-R-J1-PDC; two rhabdomyosarcomas: 755483-174-R-J1-PDC and 772245-204-R-J1-PDC; two soft tissue sarcomas: 126254-015-R-J1-PDC and 494315-158-R-J1-PDC; two malignant fibrous histiocytomas: 317291-083-R-J1-PDC and 596521-263-R-J1-PDC; two breast carcinomas: 171881-019-R-J1-PDC and 885512-296-R-J2-PDC; and one ovarian carcinoma: 6556581-035-R-J-PDC were obtained from the NCI PDMR, (https://pdmr.cancer.gov). The established cell lines HSSY-2 synovial sarcoma (RRID:CVCL 8719), SYO-1 synovial sarcoma (RRID:CVCL_7146), MPNST malignant peripheral neural sheath tumor were obtained from the Sloan Kettering Institute. The following established cell lines were purchased from the American Type Culture Collection (ATCC, Manassas, VA), Sor the received from the NCI repository:, PANC-1 pancreatic carcinoma (CRL-1469, RRID:CVCL_0480), OVCAR-5 ovarian carcinoma (RRID:CVCL_1628), OVCAR-8 ovarian carcinoma (RRID:CVCL_1629), , MCF-7 breast carcinoma (CRL-12584, RRID:CVCL_0031), MDA-MB-231 breast carcinoma (CRL-12532, RRID:CVCL_0062), NCI-H1876 small cell lung carcinoma (CRL-5902, RRID:CVCL_1503), NCI-H510A small cell lung carcinoma (HTB-184, RRID:CVCL_1565), NCI-H1417 (CRL-5869, RRID:CVCL_1469), and NCI-H196 small cell lung carcinoma (CRL-5823, RRID:CVCL_1509). Dr. Peter Houghton (Greehey Children's Cancer Research Institute, University of Texas Health Science Center, San Antonio, TX) provided Rh-18 rhabdomyosarcoma (RRID:CVCL_1659). Pooled donor human umbilical vein endothelial cells (HUVEC, Lonza, cat. CC-2519) and human mesenchymal stem cells (hMSC, Lonza, cat. PT-2501) were purchased from Lonza (Walkersville, MD).
Cell Culture. […]

Where [1] appears, read: compound alone, run of 09/27/2022.

In general, viability, T/C refers to the result in the treated group divided by that in the control group, in per cent. A word on the IC50: it is the concentration that gives 50% inhibition. Regarding `C#Cc1c(F)ccc2cc(O)cc(-c3ncc4c(N5CC6CCC(C5)N6)nc(OCC56CCCN5CC(F)C6)nc4c3F)c12` (configuration not stated), the viability, T/C (compound 0.0316 µM) is 94.6% and 101% and 103%; the viability, T/C (compound 0.1 µM) is 93.4% and 95.6% and 109%; the viability, T/C (compound 0.316 µM) is 93.4% and 92.8% and 118%; the viability, T/C (compound 1 µM) was 102% and 100% and 113%; the viability, T/C (compound 3.16 µM) is 101% and 92.6% and 108%; the viability, T/C (compound 10 µM) was 105% and 92.6% and 104%. For the same molecule, for the setting “curve of compound”, the IC50 was over 10000 nM.

Consider `C=C(F)C(=O)N1CCN(c2nc(OCC3CCCN3C)nc3c2CCN(c2cccc4cccc(Cl)c24)C3)CC1CC#N` (configuration not stated), for which the viability, T/C reads like this: (compound 0.0316 µM) 95.2% and 99.4% and 108%; (compound 0.1 µM) 109% and 99.9% and 101%; (compound 0.316 µM) 100% and 102% and 113%; (compound 1 µM) 96.1% and 103% and 109%; (compound 3.16 µM) 94.2% and 103% and 111%. The IC50 (curve of compound) was > 10000 nM and 5950 nM.

In the case of `C=CC(=O)N1CCN(c2nc(=O)n(-c3c(C)ccnc3C(C)C)c3nc(-c4c(O)cccc4F)c(F)cc23)C(C)C1` (configuration not stated), the viability, T/C reads like this: (compound 0.0316 µM) 92% and 102% and 106%; (compound 0.1 µM) 94.8% and 110% and 103%; (compound 0.316 µM) 103% and 93.4% and 109%; (compound 1 µM) 99.8% and 106% and 112%; (compound 3.16 µM) 97.6% and 103% (2×); (compound 10 µM) 95.1% and 114% and 91.3%. In addition, the half-maximal inhibitory concentration (IC50) (curve of compound) is over 10000 nM.

With `CCN1C(C(=O)NC23CCC(C(=O)O)(CC2)CC3)C(c2cccc(Cl)c2F)C2(C(=O)Nc3cc(Cl)ccc32)C12CCCCC2` (configuration not stated), the viability, T/C by setting is: (compound 0.00949 µM) 102% and 98.3%; (compound 0.03 µM) 102% [middle of 15 runs]; (compound 0.0949 µM) 106% [middle of 15 runs]; (compound 0.3 µM) 106% [middle of 15 runs]; (compound 0.949 µM) 113% [middle of 15 runs]. Also, the IC50 runs as follows: under setting [1], over 3000 nM; (curve of compound) over 3000 nM.

As for `CCN1CCN(Cc2ccc(Nc3ncc(F)c(-c4cc(F)c5nc(C)n(C(C)C)c5c4)n3)nc2)CC1`, the viability, T/C is, setting by setting: (compound 0.00316 µM) 106% and 104% and 96.7%; (compound 0.01 µM) 107% and 101% and 105%; (compound 0.0316 µM) 112% and 95.9% and 98.3%; (compound 0.1 µM) 103% and 110% and 106%; (compound 0.316 µM) 108% and 113% and 112%; (compound 1 µM) 120% and 116% and 119%. Further, for the setting “curve of compound”, the IC50 is over 1000 nM.

With `CNC(C)C(=O)NC1CN(S(=O)(=O)c2cccc(S(=O)(=O)N3CCC4CCC(C(=O)NC(c5ccccc5)c5ccccc5)N4C(=O)C(NC(=O)C(C)NC)C3)c2)CCC2CCC(C(=O)NC(c3ccccc3)c3ccccc3)N2C1=O` (configuration not stated), the viability, T/C runs as follows: (compound 0.00316 µM) 38.2% and 43%; (compound 0.01 µM) 7.09% [middle of 14 runs]; (compound 0.0316 µM) 5.61% [middle of 14 runs]; (compound 0.1 µM) 3.73% [middle of 14 runs]; (compound 0.316 µM) 3.32% [middle of 13 runs]; (compound 1 µM) 2.97% [middle of 14 runs]. Moreover, the IC50 is under 10 nM (compound alone, run of 10/03/2022) and under 3.16 nM (curve of compound).

Turning to `COc1c(OCCCN2CCOCC2)ccc2c3n(c(=NC(=O)c4cnc(N)nc4)nc12)CCN3`, the viability, T/C (compound 0.00316 µM) is 96% and 93% and 109%; the viability, T/C (compound 0.01 µM) is 91.4% and 90.6% and 101%; the viability, T/C (compound 0.0316 µM) was 94.1% and 100% and 108%; the viability, T/C (compound 0.1 µM) was 77.4% and 86.4% and 90.1%; the viability, T/C (compound 0.316 µM) was 67.9% and 69.6% and 69.5%; the viability, T/C (compound 1 µM) was 56.8% and 50.8% and 51%. For the setting “curve of compound”, the 50% inhibitory concentration (IC50) is over 1000 nM.

Consider `Cc1c(S(C)(=O)=O)c(-c2cc(F)cc(N3CCN(c4ccc(NS(=O)(=O)c5ccc(NC(CCN6CCC(C(=O)OCCCP(=O)(O)O)CC6)CSc6ccccc6)c(S(=O)(=O)C(F)(F)F)c5)cc4)CC3)c2)c(-c2ccc(Cl)cc2)n1C(C)C` (configuration not stated), for which the viability, T/C (compound 0.1 µM) is 94.5% [middle of 14 runs]; the viability, T/C (compound 0.316 µM) was 92.9% [middle of 14 runs]; the viability, T/C (compound 1 µM) is 91.4% [middle of 14 runs]; the viability, T/C (compound 3.16 µM) is 82.2% [middle of 14 runs]; the viability, T/C (compound 10 µM) is 75.3% [middle of 14 runs]. Under setting [1], the IC50 was over 10000 nM.

Consider `Cc1nc(N2CCC3(CC2)COC(C)C3N)c(CO)nc1Sc1ccnc(N)c1Cl` (configuration not stated), for which the viability, T/C runs as follows: (compound 0.00949 µM) 108% and 110% and 98.4%; (compound 0.03 µM) 142% and 106% and 101%; (compound 0.0949 µM) 106% and 99% and 102%; (compound 0.3 µM) 86.8% and 96.3% and 92.5%; (compound 0.949 µM) 43% and 63.5% and 67.1%; (compound 3 µM) 13.2% and 30.9% and 37.1%. Where the note is “curve of compound”, the concentration for half-maximal inhibition (IC50) is 777 nM and 1550 nM and 1820 nM.

For the molecule `Cn1ncnc1[C@H]1c2n[nH]c(=O)c3cc(F)cc(c23)N[C@@H]1c1ccc(F)cc1`, the viability, T/C by setting is: (compound 0.000316 µM) 97.9% and 107% and 106%; (compound 0.001 µM) 104% and 97.1% and 99.2%; (compound 0.00316 µM) 99.5% and 100% and 104%; (compound 0.01 µM) 104% and 102% and 98%; (compound 0.0316 µM) 100% (2×) and 96.9%; (compound 0.1 µM) 98.8% and 96% and 88.3%. Besides, where the note is “curve of compound”, the IC50 was over 100 nM.

Turning to `NC(=O)C(=Cn1cnc(-c2cc(C(F)(F)F)cc(C(F)(F)F)c2)n1)c1cncnc1`, the viability, T/C was 112% and 103% and 99.9% (compound 0.000949 µM); 101% and 99.4% and 88.3% (compound 0.003 µM); 79% and 71.1% and 58.7% (compound 0.00949 µM); 48.9% and 49.5% and 27.4% (compound 0.03 µM); 9.22% and 11.1% and 7.62% (compound 0.0949 µM); 6.01% and 7.26% and 5.35% (compound 0.3 µM). Moreover, where the note is “curve of compound”, the IC50 was 25.1 nM and 23.9 nM and 13.1 nM.

`NC1CCC(NC2CC2c2ccccc2)CC1` (configuration not stated): the viability, T/C was 103% and 108% and 100% (compound 0.000316 µM); 93.8% and 106% and 108% (compound 0.001 µM); 108% (2×) and 97.2% (compound 0.00316 µM); 93% and 98.4% and 103% (compound 0.01 µM); 99.4% and 105% and 114% (compound 0.0316 µM); 92.6% and 112% and 92.1% (compound 0.1 µM). For the same molecule, under “curve of compound”, the half-inhibitory concentration (IC50) is over 100 nM.

Regarding `O=C(c1cc(Cc2n[nH]c(=O)c3ccccc23)ccc1F)N1CCN(C(=O)C2CC2)CC1`, the viability, T/C is, setting by setting: (compound 0.0316 µM) 94% and 96.9%; (compound 0.1 µM) 96.5% and 113%; (compound 0.316 µM) 101% and 94.4%; (compound 1 µM) 99.6% and 101%; (compound 3.16 µM) 96.3% and 102%; (compound 10 µM) 97.1% and 97.2%. Moreover, the IC50 (curve of compound) was over 10000 nM.

For the molecule `O=C(c1ccc(F)c(F)c1Nc1ccc(I)cc1F)N1CC(O)([C@@H]2CCCCN2)C1`, the viability, T/C is, setting by setting: (compound 0.00316 µM) 94.1% and 97.7% and 117%; (compound 0.01 µM) 116% and 99.4% and 109%; (compound 0.0316 µM) 98.1% and 97.8% and 122%; (compound 0.1 µM) 116% and 111% and 136%; (compound 0.316 µM) 132% and 119% and 145%; (compound 1 µM) 126% and 119% and 145%. The IC50 (curve of compound) was over 1000 nM.

Values taken from PubChem BioAssay AID1963439 (Molecular Pharmacology Branch, DTP, NCI, 2024).
